The text below walks through data of ChEMBL document CHEMBL1159093, “Discovery and optimization of RO-85, a novel drug-like, potent, and selective P2X3 receptor antagonist” (Bioorg Med Chem Lett, 2010).

One data set deals with T1, P2X purinoceptor 3 (Rattus norvegicus, UniProt P49654).
T1 sequence (P49654 whole entry): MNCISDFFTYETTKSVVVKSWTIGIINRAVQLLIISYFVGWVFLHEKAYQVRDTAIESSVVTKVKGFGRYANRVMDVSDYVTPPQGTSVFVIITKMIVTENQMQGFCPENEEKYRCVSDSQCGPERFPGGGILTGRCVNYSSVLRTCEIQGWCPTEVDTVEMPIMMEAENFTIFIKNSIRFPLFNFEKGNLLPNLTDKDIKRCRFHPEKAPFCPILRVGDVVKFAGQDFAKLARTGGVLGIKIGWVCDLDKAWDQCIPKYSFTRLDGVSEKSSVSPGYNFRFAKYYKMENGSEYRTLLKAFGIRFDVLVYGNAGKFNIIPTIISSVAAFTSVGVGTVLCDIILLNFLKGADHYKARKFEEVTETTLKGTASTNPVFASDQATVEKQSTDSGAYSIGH
In words: Antagonist activity at rat P2X3 receptor expressed in CHO cells. It is filed as functional, cell-based.

The target in the next data set is P2X purinoceptor 1 (Homo sapiens, UniProt P51575). In words: Antagonist activity at P2X1 receptor. It is filed as functional.
Chain of P2X purinoceptor 1 (P51575 whole entry): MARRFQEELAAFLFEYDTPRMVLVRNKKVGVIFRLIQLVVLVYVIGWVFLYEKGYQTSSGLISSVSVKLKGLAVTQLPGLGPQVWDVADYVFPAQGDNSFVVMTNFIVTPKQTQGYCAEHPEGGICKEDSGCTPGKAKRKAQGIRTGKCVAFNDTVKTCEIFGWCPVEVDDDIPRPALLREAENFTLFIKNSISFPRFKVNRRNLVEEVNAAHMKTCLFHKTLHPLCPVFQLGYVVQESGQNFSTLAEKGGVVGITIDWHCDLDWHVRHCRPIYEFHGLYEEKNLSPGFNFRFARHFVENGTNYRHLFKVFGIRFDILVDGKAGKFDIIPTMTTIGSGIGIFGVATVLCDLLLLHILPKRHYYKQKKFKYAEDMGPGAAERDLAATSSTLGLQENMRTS
The target of a further data set is P2X purinoceptor 7 (Homo sapiens, UniProt Q99572). In words: Antagonist activity at P2X7 receptor. The class given is functional.
Chain of P2X purinoceptor 7 (Q99572 whole entry): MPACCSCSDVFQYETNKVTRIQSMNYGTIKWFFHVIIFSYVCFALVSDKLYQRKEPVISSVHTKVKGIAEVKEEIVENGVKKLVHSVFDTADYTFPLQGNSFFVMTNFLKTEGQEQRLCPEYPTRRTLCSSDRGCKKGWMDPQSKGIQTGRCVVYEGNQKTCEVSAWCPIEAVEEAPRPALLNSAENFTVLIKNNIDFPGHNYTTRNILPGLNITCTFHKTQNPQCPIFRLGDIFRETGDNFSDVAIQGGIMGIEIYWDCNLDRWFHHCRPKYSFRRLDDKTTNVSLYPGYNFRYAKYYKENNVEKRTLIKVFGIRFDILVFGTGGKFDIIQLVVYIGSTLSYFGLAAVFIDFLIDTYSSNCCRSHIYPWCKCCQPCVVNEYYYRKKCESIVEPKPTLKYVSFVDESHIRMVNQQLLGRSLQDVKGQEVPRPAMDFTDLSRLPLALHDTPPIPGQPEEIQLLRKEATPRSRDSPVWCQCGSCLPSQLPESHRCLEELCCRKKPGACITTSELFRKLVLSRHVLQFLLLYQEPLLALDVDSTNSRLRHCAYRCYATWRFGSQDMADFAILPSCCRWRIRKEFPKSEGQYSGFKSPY
A short description of data set [1]: Protein binding in rat plasma. It is filed as ADME, cell-free. Conditions: read-out: PPB (converted).
For the next data set, the target named is P2X purinoceptor 2 (Homo sapiens, UniProt Q9UBL9). The data set is described as follows: Antagonist activity at P2X2 receptor. The class given is functional.
A further data set addresses Cytochrome P450 3A4 (Homo sapiens, UniProt P08684). The data set is described as follows: Inhibition of CYP3A4. The class given is ADME.
The target of data set [2] is T2, P2X2/P2X3 heterotrimeric receptor (Homo sapiens, UniProt P56373+Q9UBL9).
T2 sequence (Q9UBL9 whole entry): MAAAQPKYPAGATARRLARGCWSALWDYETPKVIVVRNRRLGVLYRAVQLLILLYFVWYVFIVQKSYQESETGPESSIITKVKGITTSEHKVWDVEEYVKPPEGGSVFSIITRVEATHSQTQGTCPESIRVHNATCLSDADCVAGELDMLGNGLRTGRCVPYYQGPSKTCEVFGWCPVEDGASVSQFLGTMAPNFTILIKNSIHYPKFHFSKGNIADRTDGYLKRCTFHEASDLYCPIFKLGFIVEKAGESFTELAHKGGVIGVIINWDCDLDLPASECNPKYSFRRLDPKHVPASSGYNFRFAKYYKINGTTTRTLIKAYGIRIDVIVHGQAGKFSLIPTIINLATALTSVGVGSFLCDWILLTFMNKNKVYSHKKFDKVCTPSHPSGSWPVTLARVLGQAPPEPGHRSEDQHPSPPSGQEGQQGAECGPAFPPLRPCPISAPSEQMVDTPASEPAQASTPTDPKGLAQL
T2 sequence (P56373 whole entry): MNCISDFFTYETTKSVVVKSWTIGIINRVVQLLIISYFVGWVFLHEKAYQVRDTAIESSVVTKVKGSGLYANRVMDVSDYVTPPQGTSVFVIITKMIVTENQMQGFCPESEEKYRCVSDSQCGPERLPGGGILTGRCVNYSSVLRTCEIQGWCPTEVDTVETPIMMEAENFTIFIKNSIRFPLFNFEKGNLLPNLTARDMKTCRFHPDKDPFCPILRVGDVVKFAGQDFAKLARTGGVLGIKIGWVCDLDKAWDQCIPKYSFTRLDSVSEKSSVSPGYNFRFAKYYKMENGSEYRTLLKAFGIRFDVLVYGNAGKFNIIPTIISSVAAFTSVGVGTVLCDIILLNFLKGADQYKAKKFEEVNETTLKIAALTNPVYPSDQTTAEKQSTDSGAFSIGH
In words: Antagonist activity at human P2X2/P2X3 receptor expressed in human 1321N1C cells. It is filed as functional, cell-based.

A further data set has as its target P2X purinoceptor 4 (Homo sapiens, UniProt Q99571). In words: Antagonist activity at P2X4 receptor. The class given is functional.
In the next data set the target is Cytochrome P450 2D6 (Homo sapiens, UniProt P10635). The data set is described as follows: Inhibition of CYP2D6. It is filed as ADME.
Chain of Cytochrome P450 2D6 (P10635 whole entry): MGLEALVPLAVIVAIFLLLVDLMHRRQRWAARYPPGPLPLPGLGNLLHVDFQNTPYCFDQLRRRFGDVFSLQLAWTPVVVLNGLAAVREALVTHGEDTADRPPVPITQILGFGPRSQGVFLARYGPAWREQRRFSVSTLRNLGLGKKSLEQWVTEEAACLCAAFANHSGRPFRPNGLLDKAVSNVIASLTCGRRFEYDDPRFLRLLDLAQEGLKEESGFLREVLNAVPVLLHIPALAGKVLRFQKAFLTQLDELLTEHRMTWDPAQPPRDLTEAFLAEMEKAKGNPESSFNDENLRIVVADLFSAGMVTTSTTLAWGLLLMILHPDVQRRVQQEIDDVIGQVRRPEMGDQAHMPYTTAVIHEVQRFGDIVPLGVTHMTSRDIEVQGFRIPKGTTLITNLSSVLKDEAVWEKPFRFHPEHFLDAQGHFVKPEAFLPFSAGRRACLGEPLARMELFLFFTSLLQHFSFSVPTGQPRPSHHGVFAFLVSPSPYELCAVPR
The next data set has as its target P2X purinoceptor 6 (Homo sapiens, UniProt O15547). The data set is described as follows: Antagonist activity at P2X6 receptor. It is filed as functional.
For another data set, the target named is P2X purinoceptor 5 (Homo sapiens, UniProt Q93086). In words: Antagonist activity at P2X5 receptor. The class given is functional.
Chain of P2X purinoceptor 5 (Q93086 whole entry): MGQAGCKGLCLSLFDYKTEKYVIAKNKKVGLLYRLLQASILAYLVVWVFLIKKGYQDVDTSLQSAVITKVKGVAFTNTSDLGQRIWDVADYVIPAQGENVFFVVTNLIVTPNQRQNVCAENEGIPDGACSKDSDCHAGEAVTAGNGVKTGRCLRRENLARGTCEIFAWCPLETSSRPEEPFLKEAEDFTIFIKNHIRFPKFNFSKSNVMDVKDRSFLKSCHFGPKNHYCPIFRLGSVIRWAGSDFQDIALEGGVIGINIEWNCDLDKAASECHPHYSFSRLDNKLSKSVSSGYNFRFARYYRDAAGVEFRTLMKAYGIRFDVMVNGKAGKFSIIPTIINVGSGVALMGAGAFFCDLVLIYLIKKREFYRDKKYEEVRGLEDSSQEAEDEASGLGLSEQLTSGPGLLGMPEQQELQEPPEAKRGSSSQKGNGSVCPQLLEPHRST

Chain of P2X purinoceptor 4 (Q99571 whole entry): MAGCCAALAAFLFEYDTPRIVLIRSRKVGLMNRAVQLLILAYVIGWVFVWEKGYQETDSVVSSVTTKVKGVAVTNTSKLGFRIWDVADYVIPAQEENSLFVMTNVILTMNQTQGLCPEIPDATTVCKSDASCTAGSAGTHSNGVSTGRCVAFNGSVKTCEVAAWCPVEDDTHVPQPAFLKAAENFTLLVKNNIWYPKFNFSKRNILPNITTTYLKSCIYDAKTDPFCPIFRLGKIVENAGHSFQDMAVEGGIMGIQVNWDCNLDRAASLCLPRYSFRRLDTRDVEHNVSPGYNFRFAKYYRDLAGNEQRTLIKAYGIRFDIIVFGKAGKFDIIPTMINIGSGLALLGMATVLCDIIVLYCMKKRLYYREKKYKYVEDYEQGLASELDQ
Chain of Cytochrome P450 3A4 (P08684 whole entry): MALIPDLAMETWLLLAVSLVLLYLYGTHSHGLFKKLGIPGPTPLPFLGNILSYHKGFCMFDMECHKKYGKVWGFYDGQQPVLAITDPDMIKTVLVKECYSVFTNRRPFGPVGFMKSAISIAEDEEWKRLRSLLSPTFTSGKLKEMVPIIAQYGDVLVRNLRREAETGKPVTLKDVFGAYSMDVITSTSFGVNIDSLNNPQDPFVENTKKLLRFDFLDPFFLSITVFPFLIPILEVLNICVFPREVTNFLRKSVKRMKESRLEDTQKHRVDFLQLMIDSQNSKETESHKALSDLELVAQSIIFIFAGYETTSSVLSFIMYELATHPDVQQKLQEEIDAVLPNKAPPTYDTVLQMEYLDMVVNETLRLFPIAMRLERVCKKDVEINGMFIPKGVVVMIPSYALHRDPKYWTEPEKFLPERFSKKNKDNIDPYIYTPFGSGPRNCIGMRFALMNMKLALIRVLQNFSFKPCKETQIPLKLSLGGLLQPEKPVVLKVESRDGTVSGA
Chain of P2X purinoceptor 6 (O15547 whole entry): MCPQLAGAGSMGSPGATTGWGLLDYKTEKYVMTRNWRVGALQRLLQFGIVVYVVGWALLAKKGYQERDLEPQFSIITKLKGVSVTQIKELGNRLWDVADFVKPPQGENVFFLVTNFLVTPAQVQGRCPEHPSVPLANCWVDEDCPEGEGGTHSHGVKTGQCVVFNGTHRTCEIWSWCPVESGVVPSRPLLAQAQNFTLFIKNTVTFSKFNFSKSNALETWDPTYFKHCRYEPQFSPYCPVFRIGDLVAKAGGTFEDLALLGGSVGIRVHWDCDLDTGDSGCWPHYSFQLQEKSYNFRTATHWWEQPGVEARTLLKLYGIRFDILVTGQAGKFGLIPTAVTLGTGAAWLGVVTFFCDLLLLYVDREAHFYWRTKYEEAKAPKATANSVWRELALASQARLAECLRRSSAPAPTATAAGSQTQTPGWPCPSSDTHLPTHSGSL

Regarding `CCCc1nc(-c2ccccc2)oc1C(=O)NC(C)CN1CCN(c2ncccn2)CC1` (stereo unspecified), the IC50 (as a rule, the concentration needed to halve the response being measured) was 0.251 µM on P2X purinoceptor 3; over 10 µM against P2X purinoceptor 1; over 10 µM against P2X purinoceptor 7; over 10 µM against P2X purinoceptor 2; under 10 µM at Cytochrome P450 3A4; over 10 µM in [2]. In addition, the concentration for half-maximal inhibition (IC50) is over 10 µM at P2X purinoceptor 4, under 10 µM against Cytochrome P450 2D6, over 10 µM on P2X purinoceptor 6 and over 10 µM against P2X purinoceptor 5. Moreover, in data set [1], the fraction unbound was under 0.01.
